Measurements published in PubChem BioAssay (NCI).
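96-well plates; 48 h exposure; 5 concentrations. Endpoints by linear interpolation between flanking doses. Not reached: highest tested concentration assigned. Definition used: TGI = concentration required for complete inhibition of growth.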

Experiments:
Experiment in all cases: inhibition of tumour cell growth, NCI panel, 48 h
786-0 renal = test system: 786-0 renal
A498 renal = test system: A498 renal
A549 NSCLC = test system: A549 NSCLC
ACHN renal = test system: ACHN renal
CAKI-1 renal = test system: CAKI-1 renal
CCRF-CEM leukemia = test system: CCRF-CEM leukemia
COLO 205 colon = test system: COLO 205 colon
DLD-1 colon = test system: DLD-1 colon
EKVX NSCLC = test system: EKVX NSCLC
HCC-2998 colon = test system: HCC-2998 colon
HCT-116 colon = test system: HCT-116 colon
HCT-15 colon = test system: HCT-15 colon
HL-60(TB) leukemia = test system: HL-60(TB) leukemia
HOP-62 NSCLC = test system: HOP-62 NSCLC
HOP-92 NSCLC = test system: HOP-92 NSCLC
HT29 colon = test system: HT29 colon
IGROV1 ovarian = test system: IGROV1 ovarian
K-562 leukemia = test system: K-562 leukemia
KM12 colon = test system: KM12 colon
KM20L2 colon = test system: KM20L2 colon
LOX IMVI melanoma = test system: LOX IMVI melanoma
LXFL 529 NSCLC = test system: LXFL 529 NSCLC
M14 melanoma = test system: M14 melanoma
M19-MEL melanoma = test system: M19-MEL melanoma
MALME-3M melanoma = test system: MALME-3M melanoma
MOLT-4 leukemia = test system: MOLT-4 leukemia
NCI-H226 lung = test system: NCI-H226 lung
NCI-H23 lung = test system: NCI-H23 lung
NCI-H460 lung = test system: NCI-H460 lung
OVCAR-3 ovarian = test system: OVCAR-3 ovarian
OVCAR-4 ovarian = test system: OVCAR-4 ovarian
OVCAR-5 ovarian = test system: OVCAR-5 ovarian
OVCAR-8 ovarian = test system: OVCAR-8 ovarian
RPMI-8226 leukemia = test system: RPMI-8226 leukemia
RXF 393 renal = test system: RXF 393 renal
RXF-631 renal = test system: RXF-631 renal
SF-268 CNS = test system: SF-268 CNS
SF-295 CNS = test system: SF-295 CNS
SF-539 CNS = test system: SF-539 CNS
SK-MEL-2 melanoma = test system: SK-MEL-2 melanoma
SK-MEL-28 melanoma = test system: SK-MEL-28 melanoma
SK-MEL-5 melanoma = test system: SK-MEL-5 melanoma
SK-OV-3 ovarian = test system: SK-OV-3 ovarian
SN12C renal = test system: SN12C renal
SNB-19 CNS = test system: SNB-19 CNS
SNB-75 CNS = test system: SNB-75 CNS
SNB-78 CNS = test system: SNB-78 CNS
SR leukemia = test system: SR leukemia
SW-620 colon = test system: SW-620 colon
TK-10 renal = test system: TK-10 renal
U251 CNS = test system: U251 CNS
UACC-257 melanoma = test system: UACC-257 melanoma
UACC-62 melanoma = test system: UACC-62 melanoma
UO-31 renal = test system: UO-31 renal
XF 498 CNS = test system: XF 498 CNS
DMS 114 small cell lung = test system: DMS 114 small cell lung
HOP-18 NSCLC = test system: HOP-18 NSCLC
NCI-H522 lung = test system: NCI-H522 lung

## O=C(Nc1nc2ccc([N+](=O)[O-])cc2s1)C(=O)C(C1OC(=O)c2ccccc21)[N+](=O)[O-] (stereo not given)
786-0 renal
  TGI: > 100 µM
A498 renal
  TGI: 45 µM
A549 NSCLC
  TGI: > 100 µM
ACHN renal
  TGI: > 100 µM
CAKI-1 renal
  TGI: > 100 µM
CCRF-CEM leukemia
  TGI: > 100 µM
COLO 205 colon
  TGI: > 100 µM
DLD-1 colon
  TGI: > 100 µM
EKVX NSCLC
  TGI: > 100 µM
HCC-2998 colon
  TGI: > 100 µM
HCT-116 colon
  TGI: > 100 µM
HCT-15 colon
  TGI: > 100 µM
HL-60(TB) leukemia
  TGI: > 100 µM
HOP-62 NSCLC
  TGI: > 100 µM
HOP-92 NSCLC
  TGI: 82.9 µM
HT29 colon
  TGI: > 100 µM
IGROV1 ovarian
  TGI: > 100 µM
K-562 leukemia
  TGI: > 100 µM
KM12 colon
  TGI: > 100 µM
KM20L2 colon
  TGI: > 100 µM
LOX IMVI melanoma
  TGI: > 100 µM
LXFL 529 NSCLC
  TGI: > 100 µM
M14 melanoma
  TGI: > 100 µM
M19-MEL melanoma
  TGI: > 100 µM
MALME-3M melanoma
  TGI: > 100 µM
MOLT-4 leukemia
  TGI: > 100 µM
NCI-H226 lung
  TGI: > 100 µM
NCI-H23 lung
  TGI: > 100 µM
NCI-H460 lung
  TGI: > 100 µM
OVCAR-3 ovarian
  TGI: > 100 µM
OVCAR-4 ovarian
  TGI: > 100 µM
OVCAR-5 ovarian
  TGI: > 100 µM
OVCAR-8 ovarian
  TGI: > 100 µM
RPMI-8226 leukemia
  TGI: > 100 µM
RXF 393 renal
  TGI: > 100 µM
RXF-631 renal
  TGI: > 100 µM
SF-268 CNS
  TGI: > 100 µM
SF-295 CNS
  TGI: > 100 µM
SF-539 CNS
  TGI: > 100 µM
SK-MEL-2 melanoma
  TGI: > 100 µM
SK-MEL-28 melanoma
  TGI: > 100 µM
SK-MEL-5 melanoma
  TGI: > 100 µM
SK-OV-3 ovarian
  TGI: > 100 µM
SN12C renal
  TGI: > 100 µM
SNB-19 CNS
  TGI: > 100 µM
SNB-75 CNS
  TGI: > 100 µM
SNB-78 CNS
  TGI: > 100 µM
SR leukemia
  TGI: > 100 µM
SW-620 colon
  TGI: > 100 µM
TK-10 renal
  TGI: > 100 µM
U251 CNS
  TGI: > 100 µM
UACC-257 melanoma
  TGI: > 100 µM
UACC-62 melanoma
  TGI: > 100 µM
UO-31 renal
  TGI: 94.4 µM
XF 498 CNS
  TGI: > 100 µM

## COc1cc2ccnc([C@@H](OC(=O)c3ccccc3)c3ccc(OC)c(OC)c3OC)c2cc1OC
786-0 renal
  TGI: > 100 µM
A498 renal
  TGI: > 100 µM
A549 NSCLC
  TGI: > 100 µM
ACHN renal
  TGI: > 100 µM
CAKI-1 renal
  TGI: > 100 µM
CCRF-CEM leukemia
  TGI: > 100 µM
COLO 205 colon
  TGI: > 100 µM
DLD-1 colon
  TGI: 80.2 µM
DMS 114 small cell lung
  TGI: > 100 µM
EKVX NSCLC
  TGI: > 100 µM
HCC-2998 colon
  TGI: > 100 µM
HCT-116 colon
  TGI: > 100 µM
HCT-15 colon
  TGI: > 100 µM
HL-60(TB) leukemia
  TGI: > 100 µM
HOP-18 NSCLC
  TGI: > 100 µM
HOP-92 NSCLC
  TGI: > 100 µM
HT29 colon
  TGI: > 100 µM
IGROV1 ovarian
  TGI: > 100 µM
K-562 leukemia
  TGI: > 100 µM
KM12 colon
  TGI: > 100 µM
KM20L2 colon
  TGI: > 100 µM
LOX IMVI melanoma
  TGI: > 100 µM
LXFL 529 NSCLC
  TGI: > 100 µM
M14 melanoma
  TGI: > 100 µM
M19-MEL melanoma
  TGI: > 100 µM
MALME-3M melanoma
  TGI: 99.8 µM
MOLT-4 leukemia
  TGI: > 100 µM
NCI-H226 lung
  TGI: > 100 µM
NCI-H23 lung
  TGI: > 100 µM
NCI-H460 lung
  TGI: > 100 µM
NCI-H522 lung
  TGI: > 100 µM
OVCAR-3 ovarian
  TGI: > 100 µM
OVCAR-4 ovarian
  TGI: > 100 µM
OVCAR-5 ovarian
  TGI: > 100 µM
OVCAR-8 ovarian
  TGI: > 100 µM
RPMI-8226 leukemia
  TGI: > 100 µM
RXF 393 renal
  TGI: > 100 µM
RXF-631 renal
  TGI: > 100 µM
SF-268 CNS
  TGI: > 100 µM
SF-295 CNS
  TGI: > 100 µM
SF-539 CNS
  TGI: > 100 µM
SK-MEL-2 melanoma
  TGI: > 100 µM
SK-MEL-28 melanoma
  TGI: > 100 µM
SK-MEL-5 melanoma
  TGI: 56.6 µM
SK-OV-3 ovarian
  TGI: > 100 µM
SN12C renal
  TGI: > 100 µM
SNB-19 CNS
  TGI: > 100 µM
SNB-75 CNS
  TGI: > 100 µM
SNB-78 CNS
  TGI: > 100 µM
SW-620 colon
  TGI: > 100 µM
TK-10 renal
  TGI: > 100 µM
U251 CNS
  TGI: > 100 µM
UACC-257 melanoma
  TGI: > 100 µM
UACC-62 melanoma
  TGI: > 100 µM
UO-31 renal
  TGI: 76.3 µM
